The source of these data is ChEMBL document CHEMBL3507680, “University of Dundee, Gates Library screen for HepG2 cell viability”.

This data set is described as follows: Human HepG2 cell viability assay in 384 well format. Type of data set: toxicity, cell-based. Also on record: dose 125 nL, time 70.5 hour; cytotoxicity at 70.5 h: concentration not given beside the values. The following applies: HepG2 cells, read-out: Inhibition.
On to `Cc1noc(C2CCCN(Cn3cc(Br)cn3)C2)n1` (configuration not stated), for which the cytotoxicity at 70.5 h was -8.2%.
For `CC(NC(=O)N1CCCN(C)CC1)c1ccc2c(c1)OCCO2` (configuration not stated), the cytotoxicity at 70.5 h was -6.8%.
For `CN(C)c1nc2sc(C(=O)N3CCNC(=O)CC3)cc2s1`, the cytotoxicity at 70.5 h is -10.2%.
With `O=C(C1CC(c2ccccc2)=NO1)N1CCCCc2ccccc21` (configuration not stated) the figure was -7.24%.
Under `CC(NCc1cnc(N2CCOCC2)s1)c1ccc(Cl)s1` (configuration not stated) stands -7.8%.
With `Cc1ccc(N2CCCC(Nc3nn4cc(C)nc4s3)C2)nn1` (configuration not stated) the figure was -9.29%; with `Clc1ccc2cccnc2c1CNC1CCc2ncnn2C1` (configuration not stated), -5.27%; with `Cc1cc(C[S+]([O-])Cc2ccccc2F)on1` (configuration not stated), -8.66%.
For `CSc1ccc(NC(=O)Cn2cc(NC(C)=O)cn2)cc1`, the cytotoxicity at 70.5 h was -7.71%.
With `CN(C)c1ccc(C(=O)Nc2ccn(Cc3ccccn3)n2)cn1` the figure was 14.6%.
With `COC(=O)CC1CSCCN1C(=O)CCc1c(C)nn(C)c1C` (configuration not stated) the figure was -7.68%; with `CCCC(=O)Nc1cnn(CC(=O)Nc2ccc(SC)cc2)c1`, -5.62%.
With `CC1(NC(=O)CNC(=O)C(C)(C)C)CCc2ccccc2C1` (configuration not stated) the figure was -7.61%; with `CC(C)COc1cncc(N(C)C2CCN(c3ncccn3)CC2)n1`, -12%; with `CC(C)Cn1ncc(C(=O)NS(=O)(=O)C2CCCC2)c1C1CC1`, -8.4%.
In the case of `CCN(C(=O)CN1CCCN(c2nc(C)ns2)CC1)C1CC1`, the cytotoxicity at 70.5 h was -3.69%.
Under `CCS(=O)(=O)N1CCCN(CCCOC)CC1` stands -6.15%; under `Cc1cnn(C2CN(CCOc3cccc(C#N)c3)C2)c1`, -5.43%; under `Cn1c(SCc2noc(-c3ccsc3)n2)nnc1C1CCS(=O)(=O)C1` (configuration not stated), -4.08%.
With `Cc1noc(C)c1C(=O)NCCc1cccs1`, the cytotoxicity at 70.5 h amounted to 0.104%.
As to `COc1ccc(CN2CCCN(c3cc(C(N)=O)ccn3)CC2)cc1`, the cytotoxicity at 70.5 h turned out to be 9.62%.
With `COc1cccc(COCC(=O)NC(C(N)=O)c2ccccc2)c1` (configuration not stated) the figure was 3.41%; with `Cc1c(-c2ccncc2)n[nH]c1NC(=O)CCOC(C)C`, -4.44%; with `CNS(=O)(=O)c1ccccc1N1CCN(C(C)C(N)=O)CC1` (configuration not stated), -3.93%.
With `CNS(=O)(=O)c1ccccc1N1CCN(C(=O)NC(C)C)CC1` the figure was -5.21%; with `CC(C)N1CCC(NC(=O)NCCC(=O)NCc2ccccc2)C1` (configuration not stated), 10.4%; with `CCc1noc(C)c1C(=O)N1CCN(c2nc(C)cc(OC)n2)CC1`, 5.53%.
For `CNS(=O)(=O)c1ccccc1N1CCN(C(C)C(=O)OC)CC1` (configuration not stated), the cytotoxicity at 70.5 h was -3.28%.
With `CNC(=O)COc1ccccc1CNC1CCc2nc(C)nn2C1` (configuration not stated) the figure was -6.32%; with `CCN1CCN(C2CCN(Cc3ccc(Cl)s3)CC2)C1=O`, 1.3%.
With `CC(C)(C)C(=O)NCCC(=O)NS(=O)(=O)c1cccc(C#N)c1` the figure was 15.8%; with `CN1CCN(C2CCN(Cc3ccc(Cl)s3)CC2)C1=O`, -0.237%.
With `Cc1cc(C2CCCN(C(=O)COc3ccccc3F)C2)n[nH]1` (configuration not stated) the figure was 12.5%; with `CCCN(C(=O)c1ccc(-n2ccnn2)cc1)c1cccnc1`, -3.08%.
As for `CN(Cc1ncnn1C)C(=O)CCCn1ccc2cc(Cl)ccc21`, the cytotoxicity at 70.5 h was -1.32%.
With `O=C(c1ccc(-n2ccnn2)cc1)N(CC1CC1)c1cccnc1` the figure was 5.29%; with `Cc1ccccc1CCCN1C(=O)CC2(CCSC2)C1=O` (configuration not stated), 2.27%; with `Cc1nc(CN2CCC(C(=O)N(C)C3CCC(C)CC3)CC2)cs1` (configuration not stated), -3.95%.
Under `Cc1cc2n(n1)CC(CNC1CCN(C(=O)C3CC3)CC1)CN2` (configuration not stated) stands 16.7%; under `COc1ccnc(N2CCN(C(=O)c3cc(C4CC4)[nH]n3)CC2)n1`, -5.93%.
With `CC(C)c1cc(C(=O)N2CCCN(Cc3ccccc3)CC2)n[nH]1` the figure was -5.87%; with `Cc1ccc(CNC(=O)NC2CCN(CC(F)F)CC2)cc1`, -4.96%; with `Cc1noc(CCCC(=O)NC(C)c2nnc3n2CCCCC3)n1` (configuration not stated), -1.92%.
As to `COc1ccnc(N2CCN(C(=O)c3cscn3)CC2)n1`, the cytotoxicity at 70.5 h is -2.19%.
With `Cc1cc2n(n1)CC(CNC1CCN(c3ccccn3)CC1)CN2` (configuration not stated) the figure was -0.0737%; with `Cc1nc(CN2CCC(CNC(=O)CCC3CCCC3)CC2)oc1C`, -2.1%.
With `CC(C)(C)S(=O)(=O)CCNC(=O)c1cnc(-c2ccccc2)nc1` the figure was -0.525%.
Under `Cc1nc(CN2CCC(CNC(=O)C3(C#N)CCCC3)CC2)oc1C` stands -5.03%; under `CCOc1ccc(NS(=O)(=O)c2cc(C)c(C(=O)O)s2)c(C)c1`, -3.91%; under `O=C(NCc1cccc(-n2cncn2)c1)NCC(C1CC1)C1CC1`, -5.02%.
Consider `CCC(CC)c1cc(CNC(=O)N2CCCC(C(=O)NC)C2)on1` (configuration not stated), for which the cytotoxicity at 70.5 h is -0.471%.
With `Cc1cnn(CC2CN(CCS(=O)(=O)C(F)(F)F)CCO2)c1` (configuration not stated) the figure was 23.8%; with `c1cc(CNCc2ccnc(N3CCCC3)c2)c2c(c1)OCO2`, -6.8%; with `CC1CN(c2cc(CNCc3cccc4c3OCCO4)ccn2)CCO1` (configuration not stated), -10.3%.
With `COc1ccc(C(=O)O)c(OCC(=O)NC(C)c2ccc(F)cc2)c1` (configuration not stated) the figure was -6.92%.
For the compound `c1cc(CNCc2ccnc(N3CCOCC3)c2)c2c(c1)OCCCO2`, the cytotoxicity at 70.5 h is -9.7%.
Under `Cc1nc(CNC(=O)[C@@H]2CCCN2C(=O)OC(C)(C)C)cs1` stands -7.16%.
Under `Cc1cn(CC(=O)NC2CCN(CC3CC3)CC2)c2ccccc12` stands -9.9%; under `CC(C)(C)OC(=O)N1CCCCC1C(=O)NCc1cc[nH]n1` (configuration not stated), -7.48%.
As to `N#Cc1ccnc(N2CCN(CC(O)c3ccc(F)c(F)c3)CC2)c1` (configuration not stated), the cytotoxicity at 70.5 h was -2.47%.
As to `N#Cc1ccnc(N2CCN(CC(O)c3ccc(F)cc3)CC2)c1` (configuration not stated), the cytotoxicity at 70.5 h is -0.587%.
With `O=C(Nc1cccc(N2CCN(CC3CC3)CC2)c1)C1CCOC1` (configuration not stated), the cytotoxicity at 70.5 h is -4.69%.
With `Cc1cn(CC(=O)NCC(=O)NC2CC2)c2ccccc12` the figure was -0.742%; with `O=C(Nc1cccc(N2CCN(CC3CC3)CC2)c1)C1CCCO1` (configuration not stated), 17%.
Under `O=S(=O)(CCCN1CCOC(Cn2cccn2)C1)c1ccccc1` (configuration not stated) stands 2.06%; under `Cc1cn(CC(=O)NC2CCN(C(C)C)CC2)c2ccccc12`, -1.25%; under `CNC(=O)CN1CCC(NC(=O)Cn2cc(C)c3ccccc32)CC1`, 0.492%.
With `Cc1cnn(CC2CN(CCCS(C)(=O)=O)CCO2)c1` (configuration not stated) the figure was -0.801%.
Take `N#Cc1ccnc(N2CCN(CC(O)c3c(F)cccc3F)CC2)c1` (configuration not stated): the cytotoxicity at 70.5 h was 15.3%.
Under `Cc1nc(C)c(C(C)NCc2cnc(N3CCOCC3)nc2)s1` (configuration not stated) stands 19.8%; under `c1cc(CNCc2ccnc(N3CCOCC3)c2)c2c(c1)OCO2`, -8.43%; under `COc1c(CNC2CCOc3c(Cl)cccc32)c(C)nn1C` (configuration not stated), 12.2%.
